Reference: ChEMBL document CHEMBL2021761, “Imidazonaphthyridine systems (part 2): Functionalization of the phenyl ring linked to the pyridine pharmacophore and its replacement by a pyridinone ring produces intriguing differences in cytocidal activity” (Eur J Med Chem, 2012)
Calls of active or inactive are those of the source. The rule behind the calls is not given here.

Assays:
HT-1080 = assay: Cytocidal activity against human HT1080 cells assessed as growth inhibition after 48 hrs by SRB assay; type: functional; settings: HT-1080, 48 h
[1] = biological target: T1, DNA topoisomerase 1 (Homo sapiens) (UniProt P11387); assay: Inhibition of recombinant human topoisomerase 1-mediated unwinding of supercoiled plasmid DNA assessed as DNA intercalation at 50 uM after 2 hrs by gel electrophoresis
T1 sequence (whole entry): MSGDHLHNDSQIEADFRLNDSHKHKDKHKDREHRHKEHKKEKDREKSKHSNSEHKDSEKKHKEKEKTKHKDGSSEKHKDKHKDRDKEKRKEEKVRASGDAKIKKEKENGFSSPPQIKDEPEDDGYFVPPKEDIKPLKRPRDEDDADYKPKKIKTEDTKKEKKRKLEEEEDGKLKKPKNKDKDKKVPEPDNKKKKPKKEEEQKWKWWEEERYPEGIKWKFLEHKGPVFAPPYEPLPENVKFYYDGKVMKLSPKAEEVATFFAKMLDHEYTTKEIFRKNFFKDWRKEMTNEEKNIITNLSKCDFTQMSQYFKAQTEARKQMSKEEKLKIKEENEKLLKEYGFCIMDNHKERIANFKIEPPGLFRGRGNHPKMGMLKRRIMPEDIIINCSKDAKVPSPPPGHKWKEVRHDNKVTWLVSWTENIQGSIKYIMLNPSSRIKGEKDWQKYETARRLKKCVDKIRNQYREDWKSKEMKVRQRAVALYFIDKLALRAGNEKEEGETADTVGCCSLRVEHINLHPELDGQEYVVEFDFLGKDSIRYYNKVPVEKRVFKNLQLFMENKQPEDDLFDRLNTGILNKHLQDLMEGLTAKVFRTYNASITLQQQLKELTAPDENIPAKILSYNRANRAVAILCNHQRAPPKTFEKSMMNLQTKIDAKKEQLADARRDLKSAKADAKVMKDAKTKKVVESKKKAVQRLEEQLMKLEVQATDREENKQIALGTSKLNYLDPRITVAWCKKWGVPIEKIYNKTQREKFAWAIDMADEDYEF

HT-29 = assay: Cytocidal activity against human HT-29 cells assessed as growth inhibition after 48 hrs by SRB assay; type: functional; settings: HT-29, 48 h
M21 = assay: Cytocidal activity against human M21 cells assessed as growth inhibition after 48 hrs by SRB assay; type: functional; settings: M21, 48 h
MCF7 = assay: Cytocidal activity against human MCF7 cells assessed as growth inhibition after 48 hrs by SRB assay; type: functional; settings: MCF7, 48 h
[2] = biological target: T1, DNA topoisomerase 1 (Homo sapiens); assay: Inhibition of recombinant human topoisomerase 1-mediated unwinding of supercoiled plasmid DNA assessed as DNA intercalation at 25 uM after 2 hrs by gel electrophoresis
[3] = biological target: T1, DNA topoisomerase 1 (Homo sapiens); assay: Inhibition of recombinant human topoisomerase 1-mediated unwinding of supercoiled plasmid DNA assessed as DNA intercalation at 12.5 to 100 uM by gel electrophoresis; settings: TDE = time-dependent effect
[4] = biological target: T1, DNA topoisomerase 1 (Homo sapiens); assay: Inhibition of recombinant human topoisomerase 1-mediated unwinding of supercoiled plasmid DNA assessed as formation of nicked open circular DNA at 12.5 to 100 uM after 2 hrs by gel electrophoresis
[5] = biological target: T1, DNA topoisomerase 1 (Homo sapiens); assay: Inhibition of recombinant human topoisomerase 1-mediated unwinding of supercoiled plasmid DNA assessed as DNA intercalation at 100 to 200 uM after 2 hrs by gel electrophoresis
[6] = Dissociation constant, pKa of the compound; type: physicochemical
[7] = biological target: T1, DNA topoisomerase 1 (Homo sapiens); assay: Inhibition of recombinant human topoisomerase 1-mediated unwinding of supercoiled plasmid DNA assessed as DNA intercalation after 2 hrs by gel electrophoresis

## Clc1ccc(-c2ccc3ccn4ccnc4c3n2)cc1
HT-1080
  GI50: 6.9 µM
[1]
  inhibition: Active
HT-29
  GI50: 3.4 µM
M21
  GI50: 4.7 µM
MCF7
  GI50: 7.1 µM
[2]
  inhibition: Active

## COc1cc(-c2ccc3ccn4ccnc4c3n2)cc(OC)c1OC
HT-1080
  GI50: 29.2 µM
[1]
  inhibition: Active
[3]
  inhibition: tde
HT-29
  GI50: 27.8 µM
M21
  GI50: 24.5 µM
[4]
  inhibition: inactive
MCF7
  GI50: 30.7 µM
[2]
  inhibition: Active

## CCOC(=O)c1c[nH]c2c(ccn3cc(-c4ccccc4)nc23)c1=O
HT-1080
  GI50: > 100 µM
HT-29
  GI50: > 100 µM
M21
  GI50: > 100 µM
MCF7
  GI50: > 100 µM

## Cc1ccc(-c2ccc3ccn4ccnc4c3n2)cc1
HT-1080
  GI50: 10.7 µM
[1]
  inhibition: inactive
HT-29
  GI50: 5.1 µM
M21
  GI50: 6.4 µM
[5]
  inhibition: inactive
MCF7
  GI50: 7.6 µM
[2]
  inhibition: inactive

## COc1cc(-c2c[nH]c3ccn4ccnc4c3c2=O)cc(OC)c1OC
HT-1080
  GI50: 92.5 µM
HT-29
  GI50: 62.7 µM
M21
  GI50: 82.7 µM
MCF7
  GI50: 71.9 µM

## CCOC(=O)c1c[nH]c2c(ccn3ccnc23)c1=O
HT-1080
  GI50: > 100 µM
HT-29
  GI50: > 100 µM
M21
  GI50: > 100 µM
MCF7
  GI50: > 100 µM

## c1ccc2c(c1)CCc1nc3c(ccn4ccnc34)cc1-2
[6]
  pKa: 3.53

## c1ccc2c(c1)CCc1cc3ccn4ccnc4c3nc1-2
[6]
  pKa: 2.43

## COc1cc(-c2c[nH]c3c(ccn4ccnc34)c2=O)cc(OC)c1OC
HT-1080
  GI50: > 100 µM
HT-29
  GI50: > 100 µM
M21
  GI50: > 100 µM
MCF7
  GI50: > 100 µM

## CCOC(=O)c1c[nH]c2ccn3cc(C)nc3c2c1=O
HT-1080
  GI50: 72.9 µM
HT-29
  GI50: 63.2 µM
M21
  GI50: 88.5 µM
MCF7
  GI50: 98.5 µM

## CCOC(=O)c1c[nH]c2ccn3cc(-c4ccccc4)nc3c2c1=O
HT-1080
  GI50: 10.4 µM
HT-29
  GI50: 21.6 µM
M21
  GI50: 13.4 µM
MCF7
  GI50: 20.5 µM

## CCOC(=O)C1CCc2nc3c(ccn4ccnc34)cc2C1 (centres undefined)
[6]
  pKa: 4.08

## O=c1c(-c2ccccc2)c[nH]c2ccn3ccnc3c12
HT-1080
  GI50: 19.7 µM
HT-29
  GI50: 34.2 µM
M21
  GI50: 40.7 µM
MCF7
  GI50: 20 µM

## O=C1CCCc2nc3c(ccn4ccnc34)cc21
[6]
  pKa: 2

## CCOC(=O)c1c[nH]c2c(ccn3cc(C(C)C)nc23)c1=O
HT-1080
  GI50: > 100 µM
HT-29
  GI50: > 100 µM
M21
  GI50: > 100 µM
MCF7
  GI50: > 100 µM

## c1cn2ccc3cc4c(nc3c2n1)CCCC4
[6]
  pKa: 4.59

## O=c1c(-c2ccccc2)c[nH]c2c1ccn1ccnc21
HT-1080
  GI50: > 100 µM
HT-29
  GI50: > 100 µM
M21
  GI50: > 100 µM
MCF7
  GI50: > 100 µM

## CCOC(=O)c1c[nH]c2c(ccn3cc(-c4cccc(OC)c4)nc23)c1=O
HT-1080
  GI50: > 100 µM
HT-29
  GI50: > 100 µM
M21
  GI50: > 100 µM
MCF7
  GI50: > 100 µM

## CCBr
[7]
  inhibition: Active

## COc1ccc(-c2c[nH]c3ccn4ccnc4c3c2=O)cc1
HT-1080
  GI50: 1.2 µM
[1]
  inhibition: inactive
HT-29
  GI50: 8.6 µM
M21
  GI50: 1.3 µM
[5]
  inhibition: inactive
MCF7
  GI50: 1.1 µM
[2]
  inhibition: inactive

## c1ccc2cc3nc4c(ccn5ccnc45)cc3cc2c1
[6]
  pKa: 2.43

## CCOC(=O)c1c[nH]c2ccn3cc(C(C)C)nc3c2c1=O
HT-1080
  GI50: 22 µM
HT-29
  GI50: 43.7 µM
M21
  GI50: 26.9 µM
MCF7
  GI50: 37.3 µM

## COc1ccc(-c2ccc3ccn4ccnc4c3n2)cc1
HT-1080
  GI50: 5.2 µM
[1]
  inhibition: Active
HT-29
  GI50: 5.1 µM
M21
  GI50: 5 µM
MCF7
  GI50: 6.9 µM
[2]
  inhibition: Active

## c1ccc(-c2ccc3ccn4ccnc4c3n2)cc1
HT-1080
  GI50: 54.7 µM
[1]
  inhibition: Active
[3]
  inhibition: tde
[6]
  pKa: 1.96
[4]
  inhibition: inactive
[2]
  inhibition: Active

## COc1ccc(-c2c[nH]c3c(ccn4ccnc34)c2=O)cc1
HT-1080
  GI50: > 100 µM
HT-29
  GI50: > 100 µM
M21
  GI50: > 100 µM
MCF7
  GI50: > 100 µM

## CCOC(=O)c1c[nH]c2ccn3ccnc3c2c1=O
HT-1080
  GI50: 0.3 µM
[1]
  inhibition: inactive
HT-29
  GI50: 4.5 µM
M21
  GI50: 0.8 µM
[5]
  inhibition: inactive
MCF7
  GI50: 0.3 µM
[2]
  inhibition: inactive

## Cc1cc2ccn3ccnc3c2nc1C
[6]
  pKa: 4.63

## Cc1ccc2ccn3ccnc3c2n1
[6]
  pKa: 4.23

## CCOC(=O)c1c[nH]c2c(ccn3cc(C)nc23)c1=O
HT-1080
  GI50: > 100 µM
HT-29
  GI50: > 100 µM
M21
  GI50: > 100 µM
MCF7
  GI50: > 100 µM

## CCOC(=O)c1c[nH]c2ccn3cc(-c4cccc(OC)c4)nc3c2c1=O
HT-1080
  GI50: > 100 µM
HT-29
  GI50: 71.1 µM
M21
  GI50: 93.4 µM
MCF7
  GI50: 98 µM

## COc1cc(NS(C)(=O)=O)ccc1Nc1c2ccccc2nc2ccccc12 [AMSACRINE]
HT-1080
  GI50: 1.6 µM
MCF7
  GI50: 5.6 µM
